From ChEMBL document CHEMBL1140205, “Discovery and development of fatty acid amide hydrolase (FAAH) inhibitors” (J Med Chem, 2008)

Columns and labels:
Rattus norvegicus = species on record: Rattus norvegicus; test: Ex vivo inhibition of FAAH activity in rat brain after 16 hrs; type: functional
[1] = molecular target: T1, Fatty-acid amide hydrolase 1 (Rattus norvegicus, UniProt P97612)
T1 sequence (P97612 whole entry): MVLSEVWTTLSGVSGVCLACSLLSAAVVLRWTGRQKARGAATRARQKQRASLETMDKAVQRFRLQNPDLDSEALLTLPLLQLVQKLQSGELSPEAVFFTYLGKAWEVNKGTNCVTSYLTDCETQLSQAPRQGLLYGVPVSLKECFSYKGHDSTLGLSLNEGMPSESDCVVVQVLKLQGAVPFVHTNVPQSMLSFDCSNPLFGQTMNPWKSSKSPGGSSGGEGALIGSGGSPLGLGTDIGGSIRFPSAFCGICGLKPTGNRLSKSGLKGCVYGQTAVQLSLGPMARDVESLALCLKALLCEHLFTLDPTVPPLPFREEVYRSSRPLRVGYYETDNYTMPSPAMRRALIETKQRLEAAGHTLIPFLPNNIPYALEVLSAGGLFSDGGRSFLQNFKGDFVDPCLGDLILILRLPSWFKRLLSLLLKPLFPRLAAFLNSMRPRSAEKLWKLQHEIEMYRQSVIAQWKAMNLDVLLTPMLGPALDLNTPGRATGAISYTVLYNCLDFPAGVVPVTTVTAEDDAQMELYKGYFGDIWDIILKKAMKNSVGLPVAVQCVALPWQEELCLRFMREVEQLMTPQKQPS

[2] = substrate: CCCCCCCC/C=C\CCCCCCCC(N)=O; test: Activity of FAAH

With `NC(=O)c1cccc(-c2cccc(OC(=O)NC3CCCCC3)c2)c1` [URB-597] the “inhibition (INH)” value (Rattus norvegicus) was 90%.

For `O=C1O/C(=C/Br)CCC1c1cccc2ccccc12` (stereo not drawn) [BROMOENOL LACTONE], the IC50 [1] was 800 nM.

B1: Fatty-acid amide hydrolase 1 (Homo sapiens), O00519 (protein)
chain: MVQYELWAALPGASGVALACCFVAAAVALRWSGRRTARGAVVRARQRQRAGLENMDRAAQRFRLQNPDLDSEALLALPLPQLVQKLHSRELAPEAVLFTYVGKAWEVNKGTNCVTSYLADCETQLSQAPRQGLLYGVPVSLKECFTYKGQDSTLGLSLNEGVPAECDSVVVHVLKLQGAVPFVHTNVPQSMFSYDCSNPLFGQTVNPWKSSKSPGGSSGGEGALIGSGGSPLGLGTDIGGSIRFPSSFCGICGLKPTGNRLSKSGLKGCVYGQEAVRLSVGPMARDVESLALCLRALLCEDMFRLDPTVPPLPFREEVYTSSQPLRVGYYETDNYTMPSPAMRRAVLETKQSLEAAGHTLVPFLPSNIPHALETLSTGGLFSDGGHTFLQNFKGDFVDPCLGDLVSILKLPQWLKGLLAFLVKPLLPRLSAFLSNMKSRSAGKLWELQHEIEVYRKTVIAQWRALDLDVVLTPMLAPALDLNAPGRATGAVSYTMLYNCLDFPAGVVPVTTVTAEDEAQMEHYRGYFGDIWDKMLQKGMKKSVGLPVAVQCVALPWQEELCLRFMREVERLMTPEKQSS
B1 was tested, and the Km [2] was 5 µM.
